SMILES strings stand for the structures.

The data set can be described thus: gradient 5% acetonitrile 3 min, to 50% in 2 min, to 85% in 15 min, held 3 min, 100 µL/min. As to conditions: column: Zorbax Extend-C18 2.1 x 50 mm; eluents: water / acetonitrile, 0.1% formic acid. Put shortly:
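Standards, all pure, were combined into mixtures of ~100 molecules and run at 100 μL/min on a Zorbax Extend-C18 column (2.1 × 50 mm, 1.8 μm) with water and acetonitrile, each containing 0.1% formic acid. A coupled quadrupole time-of-flight mass spectrometer operated in positive and negative ionization mode. Retention time values come from computationally picked adduct peaks, each inspected manually.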
In the case of `O=C(Oc1ccccc1)N1CCC(CNC(=O)C2(c3ccccc3)CCOCC2)CC1`, the RP-LC retention time came to 816 s.
Consider `CC1(C(=O)N2CC(F)(F)C[C@H]2c2nnc(-c3ccccc3)o2)CC1`, for which the RP-LC retention time worked out at 834 s.
Then `COc1ccc(N2CC(c3nc(-c4ccc(Cl)cc4)no3)CC2=O)cc1` (configuration not stated), with 998 s; and `COc1ccccc1NC(=O)c1oc2ccccc2c1NC(=O)Cc1ccc(F)cc1`, with 1180 s; and `Cc1cn2c3c(=O)n(Cc4c(F)cccc4Cl)c(=O)n(C)c3nc2n1C(C)C`, with 886 s.
As for `COC(=O)Cn1nc2ccc(S(=O)(=O)N3CCSCC3)cn2c1=O`, the RP-LC retention time is 711 s.
Consider `CCc1nnc(-c2ccc(=O)n(CC(=O)Nc3ccc(C)cc3F)c2)o1`, for which the RP-LC retention time came to 692 s.
The compound `CC(C)NC(=O)c1ccc2c(c1)CCCN2S(=O)(=O)c1ccccc1` yielded an RP-LC retention time of 878 s.
With `O=C(Nc1ccc2c(c1)OCCO2)c1ccnc(N2CCNC(c3ccccc3)C2)c1` (configuration not stated), the RP-LC retention time is 638 s.
`COc1ccc(-n2nc3c(N4CCCC(C(=O)NC5CCCC5)C4)nnc(C)c3c2C)cc1` (configuration not stated) had an RP-LC retention time of 696 s.
`COc1ccccc1N1CCN(C(=O)C2CCCN(c3cnc4nccnc4c3)C2)CC1` (configuration not stated) registered an RP-LC retention time of 688 s.
As to `CCOC(=O)c1ccc(Nc2c(C(=O)N3CCCC(C)C3)cnc3nc(C)ccc23)cc1` (configuration not stated), the RP-LC retention time was 669 s.
Compound `COc1ccc(-c2noc(CN3C(=O)COc4cc(C(C)(C)C)ccc43)n2)cc1OC` displayed an RP-LC retention time of 1110 s.
Compound `Cc1cccc(NC(=O)CSc2cc(N3CCN(c4ccccc4F)CC3)ncn2)c1C` registered an RP-LC retention time of 1130 s.
`O=S(=O)(c1cccnc1)N1CCN(Cc2nnnn2-c2ccc(F)c(F)c2)CC1` showed an RP-LC retention time of 733 s.
`Cc1noc(-c2cccc(OC3CN(C(=O)c4ccoc4)C3)c2)n1` showed an RP-LC retention time of 787 s.
In the case of `O=c1c2cnn(-c3ccc(Br)cc3)c2ncn1Cc1nc(-c2ccccc2)no1` it was 1150 s.
Compound `Cc1ccc(S(=O)(=O)N2C[C@@H](F)C[C@H]2C(=O)N2CCc3ccccc3C2)cc1` displayed an RP-LC retention time of 923 s.
In turn, `CC(C)n1cc(C2=CCN(S(=O)(=O)c3cccc(C#N)c3)CC2)c2cccnc21` came in with an RP-LC retention time of 995 s.
`CNC(=O)C1CCCN(c2nc3ncn(CC(=O)NCC4CCCO4)c(=O)c3s2)C1` (configuration not stated) yielded an RP-LC retention time of 569 s.
Regarding `CCCn1cc(C(=O)NCc2ccc(C)cc2)c(S(=O)(=O)N2CCC(C)CC2)n1`, the RP-LC retention time was found to be 1140 s.
`CCCn1cc(C2=CCN(S(=O)(=O)Cc3ccc(Cl)cc3)CC2)c2cccnc21` gave an RP-LC retention time of 1100 s.
Then `CCC(C)NC(=O)Cn1c2ccccc2c2ncn(Cc3nc(-c4ccccc4)no3)c(=O)c21` (configuration not stated), with 882 s; and `CCOc1cc(-c2ccc(C)cc2)nc2ccc(NC(=O)c3cccs3)cc12`, with 824 s; and `Cc1nc(N2CCN(c3ccccn3)CC2)c2c(C)c(C(=O)Nc3ccc(C)c(Cl)c3)sc2n1`, with 821 s.
With `CCOC(=O)c1[nH]c(C)c(CCC(=O)N2CCC(C(=O)NCc3ccc(SC)cc3)CC2)c1C`, the RP-LC retention time is 815 s.
Consider `O=C(Cn1c(=O)nc(NC2CCCC2)c2ccccc21)Nc1cc(F)cc(F)c1`, for which the RP-LC retention time amounted to 767 s.
For `O=S(=O)(Cc1ccccc1Cl)N(CCc1ccccc1)Cc1ccccn1`, the RP-LC retention time was found to be 950 s.
`O=C(c1c[nH]c2ccccc12)N1CCN(c2cc(-c3ccc(Cl)cc3)[nH]n2)CC1` yielded an RP-LC retention time of 811 s.
`O=c1[nH]nc(SC(F)(F)C(F)(F)C(F)(F)F)c(=O)[nH]1` came in with an RP-LC retention time of 709 s.
In turn, `O=C(C1CCN(c2ccc(Sc3ccccc3)nn2)CC1)N1CCOCC1` gave an RP-LC retention time of 647 s.
In the case of `O=C(CN1CCN(Cc2ccc(F)cc2Cl)C1=O)N1CCN(c2ccccc2)CC1` it was 881 s; in that of `CC(=O)N(C)CCc1noc(C2CN(C(=O)Cc3cccs3)C2)n1`, 627 s; in that of `N#Cc1ccc2ccn(CC(=O)N3CCCc4ccccc43)c2c1`, 963 s.
As for `Cc1cn(C)c(CC(=O)NC2CCCCCC2)c1C(=O)O`, the RP-LC retention time was found to be 765 s.
In the case of `CCn1c(=O)sc2cc(S(=O)(=O)N3CCC(C(=O)Nc4ncccc4C)CC3)ccc21`, the RP-LC retention time worked out at 666 s.
Then `O=C(Cn1cnc2c(sc3nc(-c4ccccc4)ccc32)c1=O)Nc1cccc(Br)c1`, with 1110 s; and `O=C(C1CCCN(S(=O)(=O)c2ccc(-c3ccn[nH]3)o2)C1)N1CCN(c2ccccn2)CC1` (configuration not stated), with 607 s.
For `O=C(Cn1c(=O)c2cccn2c2ccc(F)cc21)N1CCN(C(=O)c2ccco2)CC1`, the RP-LC retention time amounted to 706 s.
Then `CCn1cc(Br)c(C(=O)Nc2ccc(F)c(Cl)c2)n1`, with 1020 s.
Regarding `COc1cccc(-c2nc(C3CCN(S(=O)(=O)c4cc(C)c(C)cc4C)CC3)no2)c1`, the RP-LC retention time worked out at 1280 s.
Then `CCC(C)NC(=O)C1CCN(C(=O)Nc2ccc(NC(=O)Nc3ccccc3)cc2)CC1` (configuration not stated), with 748 s.
Take `CCc1ccc(NC(=O)N2CCc3nc(-c4ccc(Cl)cc4)ncc3C2)cc1`: the RP-LC retention time stood at 1150 s.
`Cc1ccc(F)cc1NC(=O)c1cc2n(n1)CCCC2` showed an RP-LC retention time of 949 s.
Regarding `CCOC(=O)c1c(C)[nH]c(C(=O)N2CCC(CC(=O)NCc3cccc(Cl)c3)CC2)c1C`, the RP-LC retention time came out at 824 s.
Then `CC(C)CN(CC(C)C)c1nc(-c2ccc(Cl)cc2)nc2ccccc12`, with 1130 s.
Then `CCOc1ccc(-c2[nH]ncc2CN2CCn3c(nn(C)c3=O)C2)cc1`, with 618 s.
Then `O=C(CCc1ccc2c(c1)CN(C(=O)C1COc3ccccc3O1)CCO2)N1CCOCC1` (configuration not stated), with 779 s.
As to `O=C(COc1ccc(F)cc1)N1CCCCC1CCN1CCCCC1` (configuration not stated), the RP-LC retention time came to 648 s.
In turn, `O=C(Nc1ccccc1)C1CCc2nc(N3CCN(C(=O)C4CCC4)CC3)sc2C1` (configuration not stated) showed an RP-LC retention time of 608 s.
`CSc1ccc(-c2nc3cnccn3c2Nc2c(C)cccc2C)cc1` returned an RP-LC retention time of 966 s.
Turning to `COc1ccc(-c2ccc3nc(N4CCC(C(=O)N5CCOCC5)CC4)sc3n2)cc1`, the RP-LC retention time is 822 s.
In the case of `O=C(c1cc(F)ccc1F)N1CCCC2(C1)NC(=O)N(Cc1ccc(Cl)cc1)C2=O` (configuration not stated), the RP-LC retention time turned out to be 844 s.
`CC(C)CCNC(=O)c1cc2n(n1)CC(C)(C(=O)NCc1ccc(F)cc1)N(C)C2=O` (configuration not stated) gave an RP-LC retention time of 770 s.
With `Cc1ccc(C)c(C(=O)N2C[C@H](c3nc(-c4cccnc4)no3)[C@@H](C)C2)c1`, the RP-LC retention time worked out at 836 s.
As for `CC(NC(=O)C1CCN(S(=O)(=O)c2ccc(C#N)cc2)CC1)C(=O)N1CCCc2ccccc21` (configuration not stated), the RP-LC retention time came out at 690 s.
Then `O=C(CN1C(=O)c2ccccc2C1=O)Nc1nnc(-c2ccc3c(c2)CCCC3)o1`, with 856 s.
The compound `CCc1ccccc1NC(=O)c1cc(CC)n2nccc2n1` registered an RP-LC retention time of 1150 s.
For the compound `O=C(c1cnccn1)N1CCC2(CC1)CC(OCC1CC1)CCO2` (configuration not stated), the RP-LC retention time is 694 s.
As to `CC(C(=O)NCCc1c[nH]c2ccc(Cl)cc12)n1c2ccccc2c2cnn(C)c(=O)c21` (configuration not stated), the RP-LC retention time stood at 930 s.
The compound `COC(=O)c1ccc2c(=O)n(CCc3ccccc3)c(N3CCSCC3)nc2c1` gave an RP-LC retention time of 1150 s.
On to `Cc1nn(-c2ccccc2)c2ccn(CC(=O)N3CCN(c4cccc(Cl)c4)CC3)c(=O)c12`, for which the RP-LC retention time is 927 s.
Then `CN(C)c1ccc2c(c1)CN(C(=O)c1ccsc1)CCO2`, with 586 s; and `O=C(Nc1cccn2c(C3CCC3)nnc12)c1ccncc1`, with 665 s; and `Cc1nn(C(C)C)c(C)c1S(=O)(=O)N1CCN(C(=O)C2(c3ccccc3)CC2)CC1`, with 890 s.
In the case of `Cc1ccc(Cn2c(CN3CCC(C(=O)NCCC4=CCCCC4)CC3)cc3ccccc32)cc1` it was 952 s.
As to `COc1cccc(-c2nc(C3CC(=O)N(c4ccccc4)C3)no2)c1` (configuration not stated), the RP-LC retention time turned out to be 943 s.
`COc1ccc(S(=O)(=O)NCCc2c[nH]c3ccc(F)cc23)cc1` displayed an RP-LC retention time of 866 s.
Compound `CCOC(=O)C1=C(C)NC2=C(C(=O)c3ccccc32)C1c1ccccc1OCC` (configuration not stated) came in with an RP-LC retention time of 961 s.
As to `CCn1c(=O)oc2cc(S(=O)(=O)N3CCC(CC(=O)N4c5ccccc5CC4C)CC3)ccc21` (configuration not stated), the RP-LC retention time was determined as 1010 s.
`Cc1ccc(CS(=O)Cc2ccc(C(=O)NCCN(C)C)o2)cc1` (configuration not stated): the RP-LC retention time worked out at 587 s.
`CCn1cc(C2=CCN(C(=O)Nc3ccc4c(c3)OCCO4)CC2)c2cccnc21`: the RP-LC retention time was found to be 789 s.
`CN(C)C(=O)c1ccc2c(c1)nc(CN1CCN(C(=O)NC3CCCCC3)CC1)n2C` returned an RP-LC retention time of 565 s.
Then `CCCN1CCN(CCCNC(=O)C2CCN(Cc3cn(C)c4ccc(OC)cc34)CC2)CC1`, with 533 s; and `CCC1Oc2ccc(S(=O)(=O)N3CCC(C(=O)Nc4ccc(OC)cc4)CC3)cc2NC1=O` (configuration not stated), with 861 s; and `Cc1cc(OCC(=O)Nc2ccc3c(c2)OCO3)nc(N2CCN(c3ccccc3)CC2)n1`, with 776 s.
`CCC(C(=O)NCc1ccc2c(c1)ncn2CC)c1ccccc1` (configuration not stated) gave an RP-LC retention time of 660 s.
